pIC50: −log10 of the molar value. Converted amounts (≈) assume the structure as drawn.
Columns and labels:
[1] = target: Melatonin receptor type 1A (Homo sapiens) (UniProt P48039); assay: Binding affinity to human MT1 receptor assessed as inhibition of control specific binding at 10 uM
[2] = target: Histamine H2 receptor (Homo sapiens) (UniProt P25021); assay: Binding affinity to human H2 receptor assessed as inhibition of control specific binding at 10 uM
[3] = target: T1, Transient receptor potential cation channel subfamily V member 4 (Rattus norvegicus, UniProt Q9ERZ8); assay: Antagonist activity at rat TRPV4 receptor expressed in HEK293 cells assessed as inhibition of EC80 of 4alpha-PDD-stimulated calcium flux after 10 mins; assay type: cell-based
[4] = target: C-X-C chemokine receptor type 2 (Homo sapiens) (UniProt P25025); assay: Binding affinity to human CXCR2 receptor assessed as inhibition of control specific binding at 10 uM
[5] = target: potassium channel (voltage-gated potassium channel family) (Homo sapiens, UniProt O43525+O43526+O95259+P16389+P17658+P22001+P22459+P22460+P48547+P51787+P56696+Q03721+Q09470+Q12809+Q14003+Q14721+Q16322+Q6PIU1+Q8NCM2+Q8TAE7+Q8TDN1+Q8TDN2+Q92953+Q96KK3+Q96L42+Q96PR1+Q96RP8+Q9BQ31+Q9H252+Q9H3M0+Q9NR82+Q9NS40+Q9NSA2+Q9NZV8+Q9UIX4+Q9UJ96+Q9UK17+Q9ULD8+Q9ULS6+Q9UQ05); assay: Binding affinity to potassium channel (unknown origin) assessed as inhibition of control specific binding at 10 uM; assay type: protein assay
[6] = target: GABA-A receptor; agonist GABA site (Homo sapiens) (UniProt P14867+P47870+P28472+P48169+P34903+P18505+P47869+P31644+Q16445); assay: Binding affinity to GABAA receptor (unknown origin) assessed as inhibition of control specific binding at 10 uM; assay type: protein-complex assay
[7] = target: Vasopressin V1a receptor (Homo sapiens) (UniProt P37288); assay: Binding affinity to human V1a receptor assessed as inhibition of control specific binding at 10 uM
[8] = target: Histamine H1 receptor (Homo sapiens) (UniProt P35367); assay: Binding affinity to human H1 receptor assessed as inhibition of control specific binding at 10 uM
[9] = target: T2, Transient receptor potential cation channel subfamily V member 4 (Homo sapiens, UniProt Q9HBA0); assay: Antagonist activity at human TRPV4 receptor expressed in HEK293 cells assessed as inhibition of EC80 of 4alpha-PDD-stimulated calcium flux after 10 mins; assay type: cell-based
[10] = target: Transient receptor potential cation channel subfamily M member 8 (Homo sapiens, UniProt Q7Z2W7); assay: Antagonist activity at human TRPM8 receptor expressed in HEK293 cells assessed as inhibition of menthol-stimulated calcium flux after 10 mins; assay type: cell-based
[11] = target: Muscarinic acetylcholine receptor M1 (Homo sapiens) (UniProt P11229); assay: Binding affinity to human M1 receptor assessed as inhibition of control specific binding at 10 uM
[12] = target: Adenosine receptor A1 (Homo sapiens) (UniProt P30542); assay: Binding affinity to human adenosine A1 receptor assessed as inhibition of control specific binding at 10 uM
[13] = target: Endothelin-1 receptor (Homo sapiens) (UniProt P25101); assay: Binding affinity to human ETA receptor assessed as inhibition of control specific binding at 10 uM
[14] = target: Cholecystokinin receptor type A (Homo sapiens) (UniProt P32238); assay: Binding affinity to human CCKA receptor assessed as inhibition of control specific binding at 10 uM
[15] = target: Neuromedin-K receptor (Homo sapiens) (UniProt P29371); assay: Binding affinity to human NK3 receptor assessed as inhibition of control specific binding at 10 uM
[16] = target: Sodium-dependent noradrenaline transporter (Homo sapiens) (UniProt P23975); assay: Binding affinity to human NE transporter assessed as inhibition of control specific binding at 10 uM
[17] = target: Muscarinic acetylcholine receptor M2 (Homo sapiens) (UniProt P08172); assay: Binding affinity to human M2 receptor assessed as inhibition of control specific binding at 10 uM
[18] = Solubility of the compound at pH 7.4; assay type: physicochemical; conditions: buffer
[19] = target: T1, Transient receptor potential cation channel subfamily V member 4; assay: Antagonist activity at rat TRPV4 receptor expressed in HEK293 cells assessed as inhibition of 4alpha-PDD-stimulated calcium flux after 10 mins; assay type: cell-based
[20] = target: Adrenergic receptor alpha-2 (Homo sapiens) (UniProt P08913+P18825+P18089); assay: Binding affinity to non-selective alpha2 adrenergic receptor (unknown origin) assessed as inhibition of control specific binding at 10 uM; assay type: protein assay
[21] = Half life in Wistar rat at 1.40 mg/kg, iv; assay type: ADME, organism-based; conditions: in vivo, 1.4 mg/kg
[22] = target: Neurotensin receptor type 1 (Homo sapiens) (UniProt P30989); assay: Binding affinity to human NT1 receptor assessed as inhibition of control specific binding at 10 uM
[23] = AUC (infinity) in Wistar rat at 29.73 mg/kg, po; assay type: ADME, organism-based; set-up: dose 29.73 mg/kg, time infinity, route oral; conditions: in vivo
[24] = Bioavailability in Wistar rat at 32.50 mg/kg, ip; assay type: ADME, organism-based; conditions: in vivo, 32.5 mg/kg
[25] = target: Melanocortin receptor 4 (Homo sapiens) (UniProt P32245); assay: Binding affinity to human MC4 receptor assessed as inhibition of control specific binding at 10 uM
[26] = species: Homo sapiens; assay: Binding affinity to SST receptor (unknown origin) assessed as inhibition of control specific binding at 10 uM
[27] = target: T2, Transient receptor potential cation channel subfamily V member 4; assay: Antagonist activity at human TRPV4 expressed in HEK293 cells assessed as inhibition of 20% hypotonic solution-induced Ca2+ influx; assay type: cell-based
[28] = target: Neuropeptide Y receptor type 1 (Homo sapiens) (UniProt P25929); assay: Binding affinity to human Y1 receptor assessed as inhibition of control specific binding at 10 uM
[29] = target: 5-hydroxytryptamine receptor 1B (Homo sapiens) (UniProt P28222); assay: Binding affinity to human 5-HT1B receptor assessed as inhibition of control specific binding at 10 uM
[30] = target: Delta-type opioid receptor (Homo sapiens) (UniProt P41143); assay: Binding affinity to human detla2 opioid receptor assessed as inhibition of control specific binding at 10 uM
[31] = target: Nociceptin receptor (Homo sapiens) (UniProt P41146); assay: Binding affinity to human ORL1 receptor assessed as inhibition of control specific binding at 10 uM
[32] = Plasma protein binding in human; assay type: ADME, cell-free; conditions: read-out: PPB (converted)
[33] = target: C-C chemokine receptor type 1 (Homo sapiens) (UniProt P32246); assay: Binding affinity to human CCR1 receptor assessed as inhibition of control specific binding at 10 uM
[34] = target: Galanin receptor type 2 (Homo sapiens) (UniProt O43603); assay: Binding affinity to human GAL2 receptor assessed as inhibition of control specific binding at 10 uM

T2 sequence (Q9HBA0 whole entry): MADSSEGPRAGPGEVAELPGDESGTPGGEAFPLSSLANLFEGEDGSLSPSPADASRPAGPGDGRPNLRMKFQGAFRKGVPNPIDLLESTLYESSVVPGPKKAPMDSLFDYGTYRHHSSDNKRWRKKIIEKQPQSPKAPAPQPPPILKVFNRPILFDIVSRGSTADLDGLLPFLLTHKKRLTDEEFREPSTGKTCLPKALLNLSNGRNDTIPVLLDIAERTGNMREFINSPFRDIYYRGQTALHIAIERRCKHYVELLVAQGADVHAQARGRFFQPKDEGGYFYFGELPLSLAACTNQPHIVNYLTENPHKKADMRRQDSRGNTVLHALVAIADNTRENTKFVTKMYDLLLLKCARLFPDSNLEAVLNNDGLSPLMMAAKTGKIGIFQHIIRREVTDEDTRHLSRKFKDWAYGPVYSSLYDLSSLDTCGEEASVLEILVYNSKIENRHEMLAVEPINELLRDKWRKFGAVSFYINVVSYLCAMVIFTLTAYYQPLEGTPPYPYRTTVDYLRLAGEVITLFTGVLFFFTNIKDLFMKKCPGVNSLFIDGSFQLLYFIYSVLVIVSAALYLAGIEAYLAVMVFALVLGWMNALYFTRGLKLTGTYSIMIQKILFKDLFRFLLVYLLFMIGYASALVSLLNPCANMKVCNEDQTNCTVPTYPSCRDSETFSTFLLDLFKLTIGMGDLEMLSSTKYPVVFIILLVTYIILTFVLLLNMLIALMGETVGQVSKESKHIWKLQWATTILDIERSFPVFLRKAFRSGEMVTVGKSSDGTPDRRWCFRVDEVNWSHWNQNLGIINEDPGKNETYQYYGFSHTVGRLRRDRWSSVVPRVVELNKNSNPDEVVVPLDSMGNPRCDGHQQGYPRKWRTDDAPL
T1 sequence (Q9ERZ8 whole entry): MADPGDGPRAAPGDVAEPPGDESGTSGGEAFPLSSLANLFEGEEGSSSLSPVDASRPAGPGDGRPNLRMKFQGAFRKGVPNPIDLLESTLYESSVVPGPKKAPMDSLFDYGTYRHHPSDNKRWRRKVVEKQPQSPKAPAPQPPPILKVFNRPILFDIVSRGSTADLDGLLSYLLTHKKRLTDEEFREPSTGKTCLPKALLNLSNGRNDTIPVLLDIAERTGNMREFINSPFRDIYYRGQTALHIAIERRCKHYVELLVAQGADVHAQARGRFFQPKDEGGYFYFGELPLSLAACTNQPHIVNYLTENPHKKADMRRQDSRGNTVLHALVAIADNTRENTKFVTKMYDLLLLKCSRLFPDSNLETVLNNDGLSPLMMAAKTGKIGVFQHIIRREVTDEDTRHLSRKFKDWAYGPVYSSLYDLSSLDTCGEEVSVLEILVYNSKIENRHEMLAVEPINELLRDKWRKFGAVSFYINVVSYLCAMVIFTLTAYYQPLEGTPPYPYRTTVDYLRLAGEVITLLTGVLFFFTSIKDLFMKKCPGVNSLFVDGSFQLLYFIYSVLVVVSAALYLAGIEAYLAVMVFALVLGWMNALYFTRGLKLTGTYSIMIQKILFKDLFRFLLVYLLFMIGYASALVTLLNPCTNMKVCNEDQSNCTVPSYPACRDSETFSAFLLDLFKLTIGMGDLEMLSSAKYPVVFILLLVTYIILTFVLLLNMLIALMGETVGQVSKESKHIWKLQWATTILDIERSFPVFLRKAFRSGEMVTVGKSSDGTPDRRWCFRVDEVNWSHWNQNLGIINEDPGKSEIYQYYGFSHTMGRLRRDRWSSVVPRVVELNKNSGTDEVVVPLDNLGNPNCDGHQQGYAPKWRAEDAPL
Sequence of Nociceptin receptor (Homo sapiens) (P41146 whole entry): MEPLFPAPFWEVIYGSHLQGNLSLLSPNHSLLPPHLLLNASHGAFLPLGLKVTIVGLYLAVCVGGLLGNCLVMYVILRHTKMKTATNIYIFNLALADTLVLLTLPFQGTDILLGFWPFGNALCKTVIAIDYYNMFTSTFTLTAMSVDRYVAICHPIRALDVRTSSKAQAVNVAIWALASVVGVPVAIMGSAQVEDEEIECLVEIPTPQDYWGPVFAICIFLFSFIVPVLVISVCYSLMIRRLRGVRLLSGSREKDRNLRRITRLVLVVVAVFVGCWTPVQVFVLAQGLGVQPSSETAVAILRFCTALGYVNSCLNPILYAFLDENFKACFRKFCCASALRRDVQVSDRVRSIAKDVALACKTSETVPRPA
Sequence of Neurotensin receptor type 1 (Homo sapiens) (P30989 whole entry): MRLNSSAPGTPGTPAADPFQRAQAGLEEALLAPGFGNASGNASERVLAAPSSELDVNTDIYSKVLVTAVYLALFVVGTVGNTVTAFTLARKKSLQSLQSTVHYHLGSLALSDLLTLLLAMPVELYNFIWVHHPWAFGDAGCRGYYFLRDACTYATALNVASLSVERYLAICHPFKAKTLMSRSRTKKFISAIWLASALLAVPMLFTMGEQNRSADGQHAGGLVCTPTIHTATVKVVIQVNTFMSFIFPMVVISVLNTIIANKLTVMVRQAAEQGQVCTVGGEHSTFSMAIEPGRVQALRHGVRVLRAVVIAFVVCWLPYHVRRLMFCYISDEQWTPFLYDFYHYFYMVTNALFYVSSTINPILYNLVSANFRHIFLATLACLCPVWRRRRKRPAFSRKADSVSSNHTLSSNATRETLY
Sequence of Neuropeptide Y receptor type 1 (Homo sapiens) (P25929 whole entry): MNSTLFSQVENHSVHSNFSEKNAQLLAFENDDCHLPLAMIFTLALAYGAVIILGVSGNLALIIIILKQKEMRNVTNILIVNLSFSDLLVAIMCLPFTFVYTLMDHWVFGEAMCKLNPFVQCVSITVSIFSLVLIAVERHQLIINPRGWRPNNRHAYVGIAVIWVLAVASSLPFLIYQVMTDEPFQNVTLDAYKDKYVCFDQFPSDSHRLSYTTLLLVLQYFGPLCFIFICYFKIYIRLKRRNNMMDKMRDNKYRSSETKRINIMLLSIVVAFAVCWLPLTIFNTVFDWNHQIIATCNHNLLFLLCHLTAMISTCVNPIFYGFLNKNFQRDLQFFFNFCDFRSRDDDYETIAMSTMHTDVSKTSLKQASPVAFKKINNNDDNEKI
Sequence of Melatonin receptor type 1A (Homo sapiens) (P48039 whole entry): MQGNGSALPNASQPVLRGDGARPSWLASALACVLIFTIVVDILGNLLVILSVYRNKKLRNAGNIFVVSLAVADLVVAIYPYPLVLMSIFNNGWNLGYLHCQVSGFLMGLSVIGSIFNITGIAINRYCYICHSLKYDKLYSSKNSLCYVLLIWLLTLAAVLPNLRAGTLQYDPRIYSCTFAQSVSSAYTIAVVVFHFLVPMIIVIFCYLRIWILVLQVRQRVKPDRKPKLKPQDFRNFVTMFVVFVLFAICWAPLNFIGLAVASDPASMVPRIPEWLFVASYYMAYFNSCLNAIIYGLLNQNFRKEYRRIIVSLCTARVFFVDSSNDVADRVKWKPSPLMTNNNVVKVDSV
Sequence of Vasopressin V1a receptor (Homo sapiens) (P37288 whole entry, looked up): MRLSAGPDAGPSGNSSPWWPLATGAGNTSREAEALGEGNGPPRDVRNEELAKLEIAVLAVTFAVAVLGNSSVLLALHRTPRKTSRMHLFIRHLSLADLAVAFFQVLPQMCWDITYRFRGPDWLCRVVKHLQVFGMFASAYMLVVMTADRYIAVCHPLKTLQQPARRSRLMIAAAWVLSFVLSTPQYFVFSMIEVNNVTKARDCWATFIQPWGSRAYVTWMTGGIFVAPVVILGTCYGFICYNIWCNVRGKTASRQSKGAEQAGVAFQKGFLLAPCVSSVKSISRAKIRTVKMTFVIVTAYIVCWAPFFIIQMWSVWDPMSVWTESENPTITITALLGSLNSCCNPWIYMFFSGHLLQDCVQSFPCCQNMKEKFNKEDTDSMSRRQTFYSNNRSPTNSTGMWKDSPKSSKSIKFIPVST
Sequence of C-C chemokine receptor type 1 (Homo sapiens) (P32246 whole entry): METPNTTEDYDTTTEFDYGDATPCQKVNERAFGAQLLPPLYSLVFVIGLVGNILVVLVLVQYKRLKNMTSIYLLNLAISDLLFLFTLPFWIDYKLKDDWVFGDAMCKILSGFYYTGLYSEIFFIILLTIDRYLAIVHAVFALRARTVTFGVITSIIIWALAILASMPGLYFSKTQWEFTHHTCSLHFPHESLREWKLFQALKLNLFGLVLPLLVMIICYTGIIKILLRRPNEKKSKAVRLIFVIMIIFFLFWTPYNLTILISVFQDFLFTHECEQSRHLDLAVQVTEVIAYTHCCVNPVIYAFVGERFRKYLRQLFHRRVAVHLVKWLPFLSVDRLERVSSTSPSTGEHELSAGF
Sequence of Muscarinic acetylcholine receptor M2 (Homo sapiens) (P08172 whole entry): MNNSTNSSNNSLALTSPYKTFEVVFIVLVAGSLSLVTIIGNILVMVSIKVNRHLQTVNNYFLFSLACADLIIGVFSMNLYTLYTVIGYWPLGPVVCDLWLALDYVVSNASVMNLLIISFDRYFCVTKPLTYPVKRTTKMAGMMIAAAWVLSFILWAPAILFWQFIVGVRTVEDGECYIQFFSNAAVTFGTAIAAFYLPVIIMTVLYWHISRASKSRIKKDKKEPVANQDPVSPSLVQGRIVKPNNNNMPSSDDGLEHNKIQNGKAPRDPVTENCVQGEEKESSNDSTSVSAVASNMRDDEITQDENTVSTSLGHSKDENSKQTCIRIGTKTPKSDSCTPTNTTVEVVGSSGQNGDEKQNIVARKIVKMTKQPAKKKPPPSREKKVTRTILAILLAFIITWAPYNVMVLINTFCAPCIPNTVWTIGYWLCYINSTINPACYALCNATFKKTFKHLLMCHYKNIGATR
Sequence of Cholecystokinin receptor type A (Homo sapiens) (P32238 whole entry): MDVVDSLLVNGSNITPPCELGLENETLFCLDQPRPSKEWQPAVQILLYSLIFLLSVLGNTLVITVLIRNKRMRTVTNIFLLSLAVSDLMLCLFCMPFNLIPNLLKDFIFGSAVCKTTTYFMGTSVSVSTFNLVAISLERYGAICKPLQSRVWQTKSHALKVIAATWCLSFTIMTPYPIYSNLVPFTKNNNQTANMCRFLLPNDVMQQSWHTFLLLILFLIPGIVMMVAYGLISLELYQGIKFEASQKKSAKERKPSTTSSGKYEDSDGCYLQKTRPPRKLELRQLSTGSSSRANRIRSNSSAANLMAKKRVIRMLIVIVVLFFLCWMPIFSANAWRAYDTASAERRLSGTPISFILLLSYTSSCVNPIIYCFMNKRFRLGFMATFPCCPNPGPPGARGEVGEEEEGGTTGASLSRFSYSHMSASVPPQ

In the case of `CC(C)N1CCN(S(=O)(=O)c2ccc(NC(=O)c3ccc(C(F)(F)F)cc3[N+](=O)[O-])cc2)CC1`, the inhibition [1] was 5%, the inhibition [2] was -4% and the pIC50 [3] was 6.18. The inhibition [4] was -4%, the inhibition at 10 µM [5] was -25% and the inhibition [6] was 3%. It also gave an inhibition [7] of 1%, an inhibition [8] of 4% and a pIC50 [9] of 6.38. The pIC50 [10] was 4.52, the inhibition [11] was 76% and the inhibition [12] was 2%. The inhibition [13] was -4%, the inhibition [14] was 3% and the inhibition [15] was 2%. For the same compound, the inhibition [16] was 4%, the inhibition [17] was 6% and the solubility [18] was 45.5 µM (≈ 22.8 µg/mL). The pIC50 [19] was 6.92, the inhibition [20] was -1% and the half-life [21] was 42.6 min. For the same compound, the inhibition [22] was -6%, the AUC(0-inf) [23] was 10100 ng·h/mL and the bioavailability [24] was 75%. For the same compound, the inhibition [25] was -8%, the inhibition [26] was -1% and the pIC50 [27] was 6.24. It also gave an inhibition [28] of -8%, an inhibition [29] of -2% and an inhibition [30] of 6%. The inhibition [31] was -2%, the fraction unbound [32] was 0.01 and the inhibition [33] was -5%. For the same compound, the inhibition [34] was 4%.
